Common to all, as to type: in vivo, rat
Assay [1] relates to STZ-induced mechanical allodynia. The assay can be described thus: STZ-induced diabetic rats, subsequent study. The method, then:
(§1) Experiments were conducted to determine the effect of Compound 1 in streptozotocin (STZ)-induced diabetic rats. In the first experiment, after obtaining mechanical threshold baselines, STZ (50 mg/kg IV) was administered (Day −7). Two days later, blood glucose levels were measured and animals that were hyperglycemic (>250 mg/dL) continued in the study. On Day 0 the baseline for mechanical thresholds prior to dosing with test articles was established for the rats. Compound 1 (10, 30, and 100 mg/kg PO), gabapentin (100 mg/kg PO) or vehicle was then administered daily for 5 days. On Day 0 mechanical thresholds were obtained at 1, 3, and 6 h post-dose. On Day 1 mechanical thresholds were measured immediately prior to dosing and then 3 h post-dose. The same regimen was followed on Day 3.
In a subsequent study, the same STZ paradigm was followed. However, in addition to the 100 mg/kg Compound 1 group, two additional cohorts received the Compound 1 100 mg/kg dose split into two or three doses per day with 50 mg/kg BID and 33 mg/kg TID. In addition to the gabapentin (100 mg/kg PO) group, a separate cohort received duloxetine (30 mg/kg PO). Additionally, in this study mechanical threshold testing was implemented every day immediately prior to dosing and 2 h post-dose for 7 days.

For assay [2] the test system is unchanged. In words: streptozotocin (STZ)-induced diabetic rats, first experiment. Conditions: gabapentin 100 mg/kg PO daily; 1 h post-dose Day 0 and all time points thereafter. As to the method:
FIG. 14 illustrates non-limiting reversal of mechanical hypersensitivity by Compound 1 in a diabetic neuropathy model, in accordance with various embodiments. Streptozotocin (STZ) destroys insulin-producing cells and generates a diabetic phenotype in […]. Animals were dosed with STZ on day −7. By day 0 animals are hyperglycemic and hyperalgesic (day 0 BL).
as §1

Assay [3] concerns incision-induced hyperalgesia. In words: Brennan protocol, treatment paradigm (established hyperalgesia). The settings on record: morphine 3 mg/kg SC. The text has this: Two incisional pain models were used to assess Compound 1 effects on hyperalgesia. The first model is referred to as the Brennan model in which, under anesthesia, a 1 cm longitudinal incision to the skin and underlying fascia of a rat hindpaw is made. The second is a variation but is a more invasive procedure in which the skin and muscle are spread apart using forceps which creates a longer-lasting hypersensitivity.
Using the Brennan protocol and a treatment paradigm in rat, Compound 1 (10 and 30 mg/kg PO), morphine (3 mg/kg SC) or vehicle were administered daily at 24 h post-incision, and again at 48 and 72 h post-incision. Mechanical thresholds were obtained at 1 h and 2 h post-dose in all cohorts on all days.

In the case of `CNCC[C@H](Oc1cccc2ccccc12)c1cccs1` [duloxetine, reference compound], the reversal of allodynia entry in assay [1] (duloxetine 30 mg/kg PO) is listed as “required successive doses for appreciable activity”.

With `NCC1(CC(=O)O)CCCCC1` [gabapentin, reference compound], the “reversal of allodynia (mechanical thresholds)” value in assay [2] is listed as “significant reversal of allodynia”. Moreover, in assay [1] (gabapentin 100 mg/kg PO, throughout the study), the reversal of allodynia entry is “robustly reversed the allodynia”.

For `CN1CC[C@]23c4c5ccc(O)c4O[C@H]2[C@@H](O)C=C[C@H]3[C@H]1C5` [morphine], the mechanical threshold in assay [3] (Day 1, 1 h post-dose (baseline 35 g)) was 45 g; in assay [3] (Day 2 prior to dosing), under 15 g. In addition, the analgesic effect result in assay [3] (Day 1, 2 h post-dose) is listed as “this effect waned”. Moreover, the hyperalgesia result in assay [3] (Day 2, 1 h) was “not hyperalgesic”; in assay [3] (Day 2, 2 h), “mild hyperalgesia”.

(Values after US20200289474A1, “METHODS OF TREATING PAIN WITH A THIAZOLINE ANTI-HYPERALGESIC” (priority 2019, published 2020).)
